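Following 48 hours of exposure in 96-well plates, responses at five concentrations were used to interpolate endpoints linearly. Definition used: TGI = concentration required for complete inhibition of growth.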
Experiments:
Experiment in all cases: NCI tumour cell line growth inhibition, 48 h
M19-MEL melanoma = tested on: M19-MEL melanoma
OVCAR-5 ovarian = tested on: OVCAR-5 ovarian
786-0 renal = tested on: 786-0 renal
U251 CNS = tested on: U251 CNS
XF 498 CNS = tested on: XF 498 CNS
MALME-3M melanoma = tested on: MALME-3M melanoma
OVCAR-8 ovarian = tested on: OVCAR-8 ovarian
HL-60(TB) leukemia = tested on: HL-60(TB) leukemia
LXFL 529 NSCLC = tested on: LXFL 529 NSCLC
SF-295 CNS = tested on: SF-295 CNS
KM20L2 colon = tested on: KM20L2 colon
SK-MEL-2 melanoma = tested on: SK-MEL-2 melanoma
DMS 114 small cell lung = tested on: DMS 114 small cell lung
A549 NSCLC = tested on: A549 NSCLC
UACC-257 melanoma = tested on: UACC-257 melanoma
NCI-H226 lung = tested on: NCI-H226 lung
NCI-H23 lung = tested on: NCI-H23 lung
SNB-75 CNS = tested on: SNB-75 CNS
HOP-62 NSCLC = tested on: HOP-62 NSCLC
TK-10 renal = tested on: TK-10 renal
SK-MEL-5 melanoma = tested on: SK-MEL-5 melanoma
COLO 205 colon = tested on: COLO 205 colon
CCRF-CEM leukemia = tested on: CCRF-CEM leukemia
MOLT-4 leukemia = tested on: MOLT-4 leukemia
HT29 colon = tested on: HT29 colon
HCC-2998 colon = tested on: HCC-2998 colon
SW-620 colon = tested on: SW-620 colon
SK-MEL-28 melanoma = tested on: SK-MEL-28 melanoma
DLD-1 colon = tested on: DLD-1 colon
RXF 393 renal = tested on: RXF 393 renal
EKVX NSCLC = tested on: EKVX NSCLC
UO-31 renal = tested on: UO-31 renal
SNB-78 CNS = tested on: SNB-78 CNS
RPMI-8226 leukemia = tested on: RPMI-8226 leukemia
M14 melanoma = tested on: M14 melanoma
HCT-116 colon = tested on: HCT-116 colon
OVCAR-3 ovarian = tested on: OVCAR-3 ovarian
KM12 colon = tested on: KM12 colon
LOX IMVI melanoma = tested on: LOX IMVI melanoma
SF-268 CNS = tested on: SF-268 CNS
NCI-H460 lung = tested on: NCI-H460 lung
HOP-92 NSCLC = tested on: HOP-92 NSCLC
UACC-62 melanoma = tested on: UACC-62 melanoma
NCI-H522 lung = tested on: NCI-H522 lung
K-562 leukemia = tested on: K-562 leukemia
SK-OV-3 ovarian = tested on: SK-OV-3 ovarian
DMS 273 small cell lung = tested on: DMS 273 small cell lung
IGROV1 ovarian = tested on: IGROV1 ovarian
SF-539 CNS = tested on: SF-539 CNS
MDA-MB-231 breast = tested on: MDA-MB-231 breast
BT-549 breast = tested on: BT-549 breast
HCT-15 colon = tested on: HCT-15 colon
MDA-MB-435 = tested on: MDA-MB-435
NCI/ADR-RES ovarian = tested on: NCI/ADR-RES ovarian
OVCAR-4 ovarian = tested on: OVCAR-4 ovarian
DU-145 prostate = tested on: DU-145 prostate
MCF7 breast = tested on: MCF7 breast
T-47D breast = tested on: T-47D breast
A498 renal = tested on: A498 renal
SN12C renal = tested on: SN12C renal
SNB-19 CNS = tested on: SNB-19 CNS
PC-3 prostate = tested on: PC-3 prostate
HOP-18 NSCLC = tested on: HOP-18 NSCLC
ACHN renal = tested on: ACHN renal
MDA-N = tested on: MDA-N
SR leukemia = tested on: SR leukemia
HS 578T breast = tested on: HS 578T breast
CAKI-1 renal = tested on: CAKI-1 renal
RXF-631 renal = tested on: RXF-631 renal

SMILES: C/C(CC(=O)Nc1cccc(Cl)c1C)=N\NC(=O)c1ccncc1
- TGI (M19-MEL melanoma): > 100 µM
- TGI (OVCAR-5 ovarian): > 100 µM
- TGI (786-0 renal): > 100 µM
- TGI (U251 CNS): > 100 µM
- TGI (XF 498 CNS): > 100 µM
- TGI (MALME-3M melanoma): > 100 µM
- TGI (OVCAR-8 ovarian): > 100 µM
- TGI (HL-60(TB) leukemia): > 100 µM
- TGI (LXFL 529 NSCLC): > 100 µM
- TGI (SF-295 CNS): > 100 µM
- TGI (KM20L2 colon): > 100 µM
- TGI (SK-MEL-2 melanoma): > 100 µM
- TGI (DMS 114 small cell lung): > 100 µM
- TGI (A549 NSCLC): > 100 µM
- TGI (UACC-257 melanoma): > 100 µM
- TGI (NCI-H226 lung): > 100 µM
- TGI (NCI-H23 lung): > 100 µM
- TGI (SNB-75 CNS): > 100 µM
- TGI (HOP-62 NSCLC): > 100 µM
- TGI (TK-10 renal): > 100 µM
- TGI (SK-MEL-5 melanoma): > 100 µM
- TGI (COLO 205 colon): > 100 µM
- TGI (CCRF-CEM leukemia): > 100 µM
- TGI (MOLT-4 leukemia): > 100 µM
- TGI (HT29 colon): > 100 µM
- TGI (HCC-2998 colon): > 100 µM
- TGI (SW-620 colon): > 100 µM
- TGI (SK-MEL-28 melanoma): > 100 µM
- TGI (DLD-1 colon): > 100 µM
- TGI (RXF 393 renal): 87.9 µM
- TGI (EKVX NSCLC): > 100 µM
- TGI (UO-31 renal): > 100 µM
- TGI (SNB-78 CNS): > 100 µM
- TGI (RPMI-8226 leukemia): > 100 µM
- TGI (M14 melanoma): > 100 µM
- TGI (HCT-116 colon): > 100 µM
- TGI (OVCAR-3 ovarian): > 100 µM
- TGI (KM12 colon): > 100 µM
- TGI (LOX IMVI melanoma): > 100 µM
- TGI (SF-268 CNS): > 100 µM
- TGI (NCI-H460 lung): > 100 µM
- TGI (HOP-92 NSCLC): > 100 µM
- TGI (UACC-62 melanoma): > 100 µM
- TGI (NCI-H522 lung): 55 µM
- TGI (K-562 leukemia): > 100 µM
- TGI (SK-OV-3 ovarian): > 100 µM
- TGI (DMS 273 small cell lung): > 100 µM
- TGI (IGROV1 ovarian): > 100 µM
- TGI (SF-539 CNS): > 100 µM

SMILES: COc1c(OC(C)=O)c(OC(C)=O)cc2c1-c1ccc(SC)c(=O)cc1C(NC(C)=O)CC2 (stereo not given)
- TGI (M19-MEL melanoma): > 100 µM
- TGI (OVCAR-5 ovarian): > 100 µM
- TGI (786-0 renal): > 100 µM
- TGI (U251 CNS): > 42.2 µM
- TGI (XF 498 CNS): > 28.8 µM
- TGI (MALME-3M melanoma): > 100 µM
- TGI (OVCAR-8 ovarian): > 100 µM
- TGI (MDA-MB-231 breast): > 100 µM
- TGI (HL-60(TB) leukemia): 0.61 µM
- TGI (LXFL 529 NSCLC): > 100 µM
- TGI (SF-295 CNS): 21.3 µM
- TGI (KM20L2 colon): 6.84 µM
- TGI (SK-MEL-2 melanoma): > 100 µM
- TGI (A549 NSCLC): > 100 µM
- TGI (BT-549 breast): > 100 µM
- TGI (UACC-257 melanoma): > 100 µM
- TGI (HCT-15 colon): > 97.5 µM
- TGI (NCI-H226 lung): 33.1 µM
- TGI (NCI-H23 lung): 28.7 µM
- TGI (MDA-MB-435): 0.632 µM
- TGI (SNB-75 CNS): 15.3 µM
- TGI (HOP-62 NSCLC): > 100 µM
- TGI (TK-10 renal): > 96.3 µM
- TGI (NCI/ADR-RES ovarian): > 100 µM
- TGI (SK-MEL-5 melanoma): 0.794 µM
- TGI (OVCAR-4 ovarian): > 100 µM
- TGI (COLO 205 colon): 4.32 µM
- TGI (CCRF-CEM leukemia): > 100 µM
- TGI (DU-145 prostate): 4.12 µM
- TGI (MOLT-4 leukemia): > 100 µM
- TGI (HT29 colon): > 100 µM
- TGI (MCF7 breast): > 100 µM
- TGI (HCC-2998 colon): > 27.6 µM
- TGI (T-47D breast): > 100 µM
- TGI (SW-620 colon): > 100 µM
- TGI (SK-MEL-28 melanoma): > 100 µM
- TGI (A498 renal): 56 µM
- TGI (SN12C renal): > 100 µM
- TGI (DLD-1 colon): > 100 µM
- TGI (RXF 393 renal): > 86.7 µM
- TGI (SNB-19 CNS): > 100 µM
- TGI (EKVX NSCLC): > 100 µM
- TGI (UO-31 renal): > 100 µM
- TGI (SNB-78 CNS): > 100 µM
- TGI (RPMI-8226 leukemia): > 100 µM
- TGI (M14 melanoma): > 100 µM
- TGI (PC-3 prostate): > 100 µM
- TGI (HCT-116 colon): > 100 µM
- TGI (HOP-18 NSCLC): > 100 µM
- TGI (OVCAR-3 ovarian): > 100 µM
- TGI (KM12 colon): > 100 µM
- TGI (LOX IMVI melanoma): > 100 µM
- TGI (SF-268 CNS): > 100 µM
- TGI (NCI-H460 lung): > 56.1 µM
- TGI (HOP-92 NSCLC): > 100 µM
- TGI (UACC-62 melanoma): > 74.9 µM
- TGI (ACHN renal): > 100 µM
- TGI (MDA-N): 0.576 µM
- TGI (NCI-H522 lung): 0.576 µM
- TGI (K-562 leukemia): > 43.8 µM
- TGI (SR leukemia): > 100 µM
- TGI (SK-OV-3 ovarian): > 44 µM
- TGI (DMS 273 small cell lung): > 100 µM
- TGI (IGROV1 ovarian): > 100 µM
- TGI (HS 578T breast): 0.701 µM
- TGI (CAKI-1 renal): > 87.1 µM
- TGI (SF-539 CNS): 0.846 µM

SMILES: O=S(=O)(c1ccccc1)C1CN2OC1(S(=O)(=O)c1ccccc1)CC2c1ccc(Br)cc1 (stereo not given)
- TGI (M19-MEL melanoma): > 100 µM
- TGI (OVCAR-5 ovarian): > 100 µM
- TGI (786-0 renal): > 100 µM
- TGI (U251 CNS): > 100 µM
- TGI (XF 498 CNS): 57.5 µM
- TGI (MALME-3M melanoma): > 100 µM
- TGI (OVCAR-8 ovarian): > 100 µM
- TGI (HL-60(TB) leukemia): > 100 µM
- TGI (RXF-631 renal): > 100 µM
- TGI (SF-295 CNS): > 100 µM
- TGI (KM20L2 colon): > 100 µM
- TGI (SK-MEL-2 melanoma): > 100 µM
- TGI (DMS 114 small cell lung): > 100 µM
- TGI (A549 NSCLC): > 100 µM
- TGI (UACC-257 melanoma): > 100 µM
- TGI (HCT-15 colon): > 100 µM
- TGI (NCI-H226 lung): > 100 µM
- TGI (NCI-H23 lung): > 100 µM
- TGI (SNB-75 CNS): 22.1 µM
- TGI (HOP-62 NSCLC): > 100 µM
- TGI (TK-10 renal): > 100 µM
- TGI (SK-MEL-5 melanoma): > 100 µM
- TGI (OVCAR-4 ovarian): > 100 µM
- TGI (CCRF-CEM leukemia): > 100 µM
- TGI (MOLT-4 leukemia): > 100 µM
- TGI (HT29 colon): > 100 µM
- TGI (HCC-2998 colon): > 100 µM
- TGI (SW-620 colon): > 100 µM
- TGI (SK-MEL-28 melanoma): > 100 µM
- TGI (A498 renal): > 100 µM
- TGI (SN12C renal): > 100 µM
- TGI (DLD-1 colon): > 100 µM
- TGI (RXF 393 renal): 46.5 µM
- TGI (SNB-19 CNS): > 100 µM
- TGI (EKVX NSCLC): > 100 µM
- TGI (UO-31 renal): > 100 µM
- TGI (RPMI-8226 leukemia): > 100 µM
- TGI (M14 melanoma): > 100 µM
- TGI (HCT-116 colon): > 100 µM
- TGI (OVCAR-3 ovarian): > 100 µM
- TGI (KM12 colon): > 100 µM
- TGI (LOX IMVI melanoma): > 100 µM
- TGI (SF-268 CNS): > 100 µM
- TGI (NCI-H460 lung): > 100 µM
- TGI (HOP-92 NSCLC): > 100 µM
- TGI (UACC-62 melanoma): > 100 µM
- TGI (ACHN renal): > 100 µM
- TGI (NCI-H522 lung): > 100 µM
- TGI (K-562 leukemia): > 100 µM
- TGI (SK-OV-3 ovarian): > 100 µM
- TGI (DMS 273 small cell lung): > 100 µM
- TGI (IGROV1 ovarian): > 100 µM
- TGI (CAKI-1 renal): > 100 µM
- TGI (SF-539 CNS): 89.9 µM

From PubChem BioAssay (NCI)
